From article PMC5791048 (Journal of Natural Products, 2017)

Test: A549 cytotoxicity assay
Type: cell-based
Details: human, A549 cells (human lung carcinoma)

With C=C(C)[C@@H]1CC(=O)[C@H]2[C@H](C1)[C@@H]1C(=O)O[C@@H]3C[C@]4(C)O[C@H]2C(=O)[C@@H]4[C@H]13 [ineleganolide (7), ineleganolide] the IC50 at 72 h was > 50 µg/mL.
In the case of C=C(C)[C@@H]1/C=C/[C@]23O[C@H]2[C@H](C[C@@]2(C)O[C@@H]2C2=CC(C=O)=C(C1)O2)OC3=O [keikipukalide A (1), keikipukalide A], the IC50 at 72 h is reported as > 50 µg/mL.
For C=C(C)[C@H]1CC2=C(C=O)C=C(O2)[C@H]2O[C@]2(C)C[C@@H]2OC(=O)/C(=C\[C@H]1OC(C)=O)[C@H]2OC(C)=O [keikipukalide B (2), keikipukalide B], the IC50 at 72 h was > 50 µg/mL.
In the case of C=C(C)[C@@H]1C/C=C2\C(=O)O[C@@H](C[C@@]3(C)O[C@@H]3C3=CC(C=O)=C(C1)O3)[C@@H]2OC(C)=O [keikipukalide C (3), keikipukalide C], the IC50 at 72 h is reported as > 50 µg/mL.
For C=C(C)[C@@H]1/C=C/[C@]23O[C@H]2[C@H](C[C@](C)(O)[C@@H](OC(C)=O)C2=CC(C=O)=C(C1)O2)OC3=O [keikipukalide D (4), keikipukalide D], the IC50 at 72 h was > 50 µg/mL.
For C=C(C)[C@H]1CC2=C(C=O)C=C(O2)[C@H]2O[C@]2(C)C[C@H]2C=C(C(=O)O2)[C@@H](OC(C)=O)C1 [keikipukalide E (5), keikipukalide E], the IC50 at 72 h was > 50 µg/mL.
In the case of C=C(C)[C@@H]1CCC2=C[C@H](C[C@@]3(C)O[C@@H]3C3=CC(C=O)=C(C1)O3)OC2=O [pukalide aldehyde (6), pukalide aldehyde], the IC50 at 72 h is reported as > 50 µg/mL.
